Reference: patent US20060069132A1, “Azolecarboxamide herbicides” (priority 2004, published 2006)

Experiments:
giant foxtail = test: Test C pre-/postemergence herbicide test; assay type: in vivo, Setaria faberi; settings: preemergence; for Plant response rating (0 = no effect, 100 = complete control), Foxtail, Giant: 125 g ai/ha
Summary of the method: (§1)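 Emerged plants at the 1- to 4-leaf stage (2–18 cm), or freshly planted seeds, received test chemicals in a non-phytotoxic solvent mixture with surfactant. Response was visually scored against controls after 12 to 14 days in the greenhouse, on a 0 (no effect) to 100 (complete control) scale.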

eastern black nightshade = test: Test C pre-/postemergence herbicide test; assay type: in vivo, Solanum ptycanthum; settings: preemergence; for Plant response rating (0 = no effect, 100 = complete control), Nightshade: 125 g ai/ha
Summary of the method: as §1

common ragweed = test: Test C pre-/postemergence herbicide test; assay type: in vivo, Ambrosia elatior; design: key to Plant response rating, Ragweed: 0 = no effect, 100 = complete control; settings: preemergence; for Plant response rating (0 = no effect, 100 = complete control), Ragweed: 125 g ai/ha
Summary of the method: as §1

[1] = test system: common (oilseed) sunflower; test: Test C pre-/postemergence herbicide test; assay type: in vivo, Helianthus annuus; settings: preemergence; for Plant response rating (0 = no effect, 100 = complete control), Sunflower: 125 g ai/ha
Summary of the method: as §1

rice = test: Test C flooded paddy test; assay type: in vivo, Oryza sativa; settings: for Plant response rating, Rice: 500 g ai/ha, visual rating after 12 to 14 days
Summary of the method: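 Plants were grown to the 1- to 4-leaf stage (2–18 cm) and then treated postemergence, or grown to the 2-leaf stage for the flooded paddy test. They were held in a greenhouse for 12 to 14 days and then scored by eye against controls, where 0 is no effect and 100 is complete control.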

barnyardgrass = test: Test C flooded paddy test; assay type: in vivo, Echinochloa crus-galli; settings: for Plant response rating, Barnyardgrass: 500 g ai/ha, visual rating after 12 to 14 days
Summary of the method: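 Greenhouse test with a 12–14 day hold after application and visual comparison with controls. Emerged plants were 1- to 4-leaf stage (2–18 cm) when sprayed postemergence, and the paddy barnyardgrass was at 2 leaves under flooded conditions. 100 = complete control.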

[2] = 500 g ai/ha, scale 0 to 100 (0 no effect, 100 complete control), visual, 12 to 14 days
[3] = 125 g ai/ha, scale 0 to 100 (0 no effect, 100 complete control)
[4] = 250 g ai/ha, scale of 0 to 100, 0 is no effect, 100 is complete control
[5] = scale 0 to 100 (0 no effect, 100 complete control)
[6] = 62 g ai/ha, scale 0 to 100 (0 no effect, 100 complete control)

Compound	Plant response rating, Foxtail, Giant (giant foxtail; 62 g ai/ha, scale 0 to 100)	Plant response rating (0 = no effect, 100 = complete control), Foxtail, Giant (giant foxtail)	Plant response rating, Foxtail, Giant (giant foxtail; 250 g ai/ha, scale 0-100)	Plant response rating, Foxtail, Giant (giant foxtail; [2])	Plant response rating, Nightshade (eastern black nightshade; 62 g ai/ha, scale 0 to 100)	Plant response rating (0 = no effect, 100 = complete control), Nightshade (eastern black nightshade)	Plant response rating, Nightshade (eastern black nightshade; [2])	Plant response rating, Ragweed (common ragweed; 62 g ai/ha, scale 0 to 100)	Plant response rating (0 = no effect, 100 = complete control), Ragweed (common ragweed)	Plant response rating, Ragweed (common ragweed; [2])	Plant response rating, Sunflower ([1]; 62 g ai/ha, scale 0 to 100)	Plant response rating (0 = no effect, 100 = complete control), Sunflower [1]	Plant response rating, Sunflower [1, 2]	Rice plant response rating (rice; 62 g ai/ha, scale 0 to 100)	Rice plant response rating (rice; [3])	Rice plant response rating (rice; [4])	Plant response rating, Rice (rice; [5])	Barnyardgrass plant response rating (barnyardgrass; [6])	Barnyardgrass plant response rating (barnyardgrass; [3])	Barnyardgrass plant response rating (barnyardgrass; [4])	also measured
CCNC(=O)c1cccc(NC(=O)c2nn(C(C)(C)CC)nc2CC)c1 [Compound 376]	10	85	95	100	95	100	100	0	0	50	0	0	0	70	75	75	80	45	65	70	Plant response rating, Nightshade (eastern black nightshade; 250 g ai/ha, scale 0-100): 100; Plant response rating, Ragweed (common ragweed; 250 g ai/ha, scale 0-100): 50; Plant response rating, Sunflower ([1]; 250 g ai/ha, scale 0-100): 0; Plant response rating, Barnyardgrass (barnyardgrass; [5]): 75
Cc1nn(C(C)(C)C)nc1C(=O)Nc1cccc(C(=O)N(C)C)c1 [Compound 391]	85	100	100	100	90	95	95	85	100	100	50	95	100	65	65	75	80	55	85	90	Plant response rating, Nightshade (eastern black nightshade; 250 g ai/ha, scale 0-100): 95; Plant response rating, Ragweed (common ragweed; 250 g ai/ha, scale 0-100): 100; Plant response rating, Sunflower ([1]; 250 g ai/ha, scale 0-100): 100; Plant response rating, Barnyardgrass (barnyardgrass; [5]): 95
CCNC(=O)c1ccc(F)c(N(C(C)=O)C(=O)c2cc(C(C)(C)C)nn2CC)c1 [Compound 399]	95	100	100	100	95	100	100	95	100	100	0	0	35	65	65	75	75	50	65	85	Plant response rating, Barnyardgrass (barnyardgrass; [5]): 90
